Literature values as cited in patent publication US20040198708A1, “Formulations of mometasone and a bronchodilator for pulmonary administration” (priority 2000, published 2004).

Experiments:
HPA axis [1] = settings: mice, inhaled; Chapman et al. (1998)
HPA axis [2] = settings: humans, inhaled, dosages of up to 800 mcg daily; Bernstein et al. (1999)
[3] = system: patients with mild to moderate persistent asthma; settings: inhaled once daily, Nayak et al. (2000)

## C[C@@H]1C[C@H]2[C@@H]3CCC4=CC(=O)C=C[C@]4(C)[C@@]3(Cl)[C@@H](O)C[C@]2(C)[C@@]1(OC(=O)c1ccco1)C(=O)CCl [mometasone furoate, (11β,16α)-9,21-dichloro-17-[(2-furanylcarbonyl)oxy]-11-hydroxy-16-methylpregna-1,4-diene-3,20-dione]
HPA axis [1]
  Suppression of the HPA axis: has not been reported
HPA axis [2]
  HPA axis suppression: did not cause HPA axis suppression
[3]
  Effectiveness in treating asthma: effective
